Earlier results on two substances are cited in patent US20040265272A1, “Mammalian cell-infecting virus vector encoding epitope-bound beta2m and utilization thereof” (priority 2001, published 2004).

The series relates to CTL. The settings on record: HLA-A24- or HLA-A26-restricted peptide; cancer patients.

For “SART-1 690-698: HLA-A24-restricted peptide of the SART-1 antigen (EYRGFTQDF; UniProt O43290 690-698, looked up, fragment)”, the CTL induction result is listed as “strongly induced CTL”.
Take “SART-1 736-744: HLA-A26-restricted peptide of the SART-1 antigen (KGSGKMKTE; UniProt O43290 736-744, looked up, fragment)”: the CTL induction entry is reported as “induced CTL in cancer patients with HLA-A2601, -A2602, or -A2603”.
